Results reported in publication PMC4201327 (Organic letters, 2014).

Molecular target: Egt1 (Neurospora crassa, UniProt Q7RX33)
Test: oxygen consumption, NeoFox oxygen electrode
Type: biochemical

Sequence of Egt1 (Q7RX33 whole entry): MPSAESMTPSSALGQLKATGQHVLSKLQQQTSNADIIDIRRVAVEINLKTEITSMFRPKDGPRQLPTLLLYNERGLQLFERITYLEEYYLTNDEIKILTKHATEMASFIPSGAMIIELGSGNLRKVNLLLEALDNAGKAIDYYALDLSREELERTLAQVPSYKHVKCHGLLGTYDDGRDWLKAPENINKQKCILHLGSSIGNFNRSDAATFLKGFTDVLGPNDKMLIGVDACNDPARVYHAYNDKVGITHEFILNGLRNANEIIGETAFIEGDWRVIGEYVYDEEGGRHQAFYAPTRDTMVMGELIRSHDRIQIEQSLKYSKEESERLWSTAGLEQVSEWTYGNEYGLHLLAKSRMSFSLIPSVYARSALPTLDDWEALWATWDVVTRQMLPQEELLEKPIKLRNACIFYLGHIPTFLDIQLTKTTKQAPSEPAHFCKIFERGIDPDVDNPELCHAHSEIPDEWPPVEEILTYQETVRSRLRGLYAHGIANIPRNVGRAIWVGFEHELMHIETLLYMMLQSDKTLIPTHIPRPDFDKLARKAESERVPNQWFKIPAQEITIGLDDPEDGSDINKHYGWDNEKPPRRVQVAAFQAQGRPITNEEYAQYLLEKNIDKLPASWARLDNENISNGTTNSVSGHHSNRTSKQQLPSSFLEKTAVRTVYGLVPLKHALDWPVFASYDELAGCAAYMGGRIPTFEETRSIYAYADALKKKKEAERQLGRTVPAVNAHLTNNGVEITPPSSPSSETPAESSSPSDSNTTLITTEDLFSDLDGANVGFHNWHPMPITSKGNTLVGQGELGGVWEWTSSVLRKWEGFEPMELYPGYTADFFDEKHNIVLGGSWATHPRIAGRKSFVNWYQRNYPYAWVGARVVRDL

## C[N+](C)(C)[C@@H](Cc1cnc[nH]1)C(=O)[O-] [compound 2, hercynine]
  Km: 0.436 ± 0.03 mM

## N[C@@H](CCC(=O)N[C@@H](CS)C(=O)O)C(=O)O [γ-Glu-Cys]
  Km: 7.68 ± 1.11 mM
